Values after ≈ are worked out from the molar mass of the structure shown.
Tests used:
Type in all cases: cell-based
[1] = tested on: U. zeae; test: MIC against fungal panel, U. zeae
Method: (§1) First the MIC for the β-lactone compound and the MIC for the ketoconazole were determined against an array of organisms. Thereafter, the effects on the MIC of adding 0.031, 0.125, 0.5 and 2 μg/ml of ketoconazole were determined.

[2] = tested on: Candida albicans; test: Synergistic and fungicidal effect on exponential phase cultures (CFU/ml over time); conditions: ketoconazole 1 μg/ml, alone or combined
Method: Synergistic and fungicidal effects were determined by treating exponential phase Candida albicans cultures with β-Lactone at MIC and MFC levels and ketoconazole at 0.1 μg/ml or a 1 μg/ml alone or in combination. Exponential phase cultures were prepared by diluting an overnight culture 1:50 or 1:1000 in YNB/G. After incubating the diluted cells 7 or 17 hrs. at 37° C., the exponential phase cells were diluted in YNB/G to A600 =0.0004 u/ml to obtain 3000 cfu/ml.
10 microliters (μl) of β-lactone compound or ketoconazole prepared in DMSO was added to 1 ml of diluted exponential phase cells. The tubes were incubated at 37° C. at 250 rpm for 27 hours. Periodically, aliquots were diluted in 0.9% saline and plated on Sabouraud dextrose agar plates to determine the number of cfu/ml.

[3] = tested on: Candida albicans MY 1055; test: Effect of Azole Antifungals on the MIC'S of the β-Lactone Compound
Excerpt: The β-lactone compound and the following conazole compounds: cis-1-acetyl-4-[4-[[2-(2,4-dichlorophenyl)-2-1H-imidazole-1-ylmethyl)-1,3- dioxolan-4-yl]-methoxyl]phenyl]piperazine (ketoconazole), α-(2,4-difluorophenyl)-α-(1H-1,4-triazol-1-ylmethyl)1H-1,2-4-triazole-1-ethanol (fluconazole and cis-4-[4-[4-[4-[[2-(2,4-dichlorophenyl)-2-(1H-1,2,4-triazole-1-ylmethyl)-1,3-dioxolan-4-yl]-methoxy] phenyl]-1-piperazinyl]phenyl-2,4-dihydro-2-(1-methylpropyl)-3H-1,2,4-triazol-3-one (itraconazole), were dissolved in DMSO and serially diluted in the manner previously described.
Assay tubes were prepared in a manner similar to that previously described and in operations carried out in a manner similar to that previously described, the effect of various conazole compounds on the MIC of the β-lactone compound were determined.

[4] = tested on: F. oxysporium; test: MIC against fungal panel, F. oxysporium
Method: as §1

[5] = tested on: Candida albicans MY 1055; test: Minimum Fungicidal Concentration, plating of MIC tubes; conditions: MY1055, ≥95% reduction of viable cells, 37° C., 17 hours
Method: In the manner above described for the determination of minimum inhibitory concentration, broth dilution assay tubes were prepared ranging from 0.625 to 100 μg/ml and 1 milliliter of YNB/G inoculated with Candida albicans MY 1055 sterile test tubes. The tubes were incubated at 250 rpm at 37° C. for 17 hours. The minimum fungicidal concentration (MFC) was determined by serially diluting samples of MIC tubes in 0.9% saline. Aliquots were plated on Sabouraud dextrose agar. The plates were incubated at 37° for 48 hr. and the colonies counted. From the counts obtained, the number of cfu/ml in the undiluted drug-culture tube was calculated. The MFC is defined as the minimum amount of drug required to reduce the number of viable cells initially present in the drug-culture tubes greater than or equal to 95%. The MFC was 10 μg/ml.

[6] = tested on: C. albicans (Y1055); test: MIC against fungal panel, C. albicans (Y1055)
Method: as §1

[7] = tested on: C. neoformans; test: MIC against fungal panel, C. neoformans
Method: as §1

[8] = tested on: C. miyabeamis; test: MIC against fungal panel, C. miyabeamis
Method: In a manner similar to that above described for effect against Candida albicans the synergistic effect of the combination of the β-lactone compound and ketoconazole against a fungal panel was determined by plating on potato dextrose agar.
as §1

[9] = tested on: C. albicans (Y1750); test: MIC against fungal panel, C. albicans (Y1750)
Method: as §1

[10] = tested on: A. niger; test: MIC against fungal panel, A. niger
Method: as §1

[11] = tested on: Candida albicans MY 1055; test: Minimum Inhibitory Concentration, broth dilution; conditions: MY1055, YNB/G, 37° C., 17 hr
Method: 11-(3-hydroxymethyl-4-oxo-2-oxetanyl)-7-methyl-2,4-undecadienoic acid (β-lactone compound), was solubilized in 100 percent dimethylsulfoxide (DMSO). Twofold dilutions were made with DMSO to obtain final drug concentrations in the broth dilution assay tubes ranging from 0.625 to 100 μg/ml.
The Candida albicans, MY 1055, yeast culture maintained in yeast nitrogen base/glucose (1/2 percent), YNB/G, was transferred to fresh medium and incubated 7 hours at 37° with shaking at 250 rpm. After incubation, each culture was diluted to A600 =0.0004 U/ml which was previously determined to be equal to 3000 cfu/ml (colony forming units per milliliter).
1 milliliter of YNB/G inoculated with yeast culture was added to sterile test tubes. The tubes were incubated at 250 rpm, 37° C. for 17 hr. The minimum inhibitory concentrations (MIC) was recorded as the lowest concentration of drug […].

CC(=CC(=O)O)C=C(C)CC(C)CCCCC1OC(=O)C1CO (stereo not drawn) [β-Lactone Compound]
MIC, β-Lactone Compound in Presence of Ketoconazole ([1]; ketoconazole 0 μg/ml): 3.125 µg/mL
MIC, β-Lactone Compound in Presence of Ketoconazole ([1]; ketoconazole 0.031 μg/ml): 3.125 µg/mL
MIC, β-Lactone Compound in Presence of Ketoconazole ([1]; ketoconazole 0.123 μg/ml): 0.78 µg/mL
MIC, β-Lactone Compound in Presence of Ketoconazole ([1]; ketoconazole 0.5 μg/ml): 0.19 µg/mL
MIC, β-Lactone Compound in Presence of Ketoconazole ([1]; ketoconazole 2 μg/ml): 0.19 µg/mL
Fungal Growth ([2]; Table 1, 2 hours, β-lactone 2.5 μg/ml): 3.85 × 10^3 CFU/ML
Fungal Growth ([2]; Table 1, 4.5 hours, β-lactone 2.5 μg/ml): 8.80 × 10^3 CFU/ML
Fungal Growth ([2]; Table 1, 7 hours, β-lactone 2.5 μg/ml): 1.12 × 10^4 CFU/ML
Fungal Growth ([2]; Table 1, 11 hours, β-lactone 2.5 μg/ml): 1.28 × 10^4 CFU/ML
Fungal Growth ([2]; Table 1, 17 hours, β-lactone 2.5 μg/ml): 9.35 × 10^3 CFU/ML
Fungal Growth ([2]; Table 1, 22 hours, β-lactone 2.5 μg/ml): 1.23 × 10^4 CFU/ML
Fungal Growth ([2]; Table 1, 27 hours, β-lactone 2.5 μg/ml): 1.80 × 10^4 CFU/ML
Fungal Growth ([2]; Table 2, 2 hours, β-lactone 10 μg/ml): 6.50 × 10^3 CFU/ML
Fungal Growth ([2]; Table 2, 4.5 hours, β-lactone 10 μg/ml): 7.50 × 10^3 CFU/ML
Fungal Growth ([2]; Table 2, 7 hours, β-lactone 10 μg/ml): 3.35 × 10^3 CFU/ML
Fungal Growth ([2]; Table 2, 11 hours, β-lactone 10 μg/ml): 8.70 × 10^2 CFU/ML
Fungal Growth ([2]; Table 2, 17 hours, β-lactone 10 μg/ml): 5.00 × 10^1 CFU/ML
Fungal Growth ([2]; Table 2, 22 hours, β-lactone 10 μg/ml): 6.50 × 10^1 CFU/ML
Fungal Growth ([2]; Table 2, 27 hours, β-lactone 10 μg/ml): 7.50 × 10^1 CFU/ML
MIC of β-lactone compound ([3]; fluconazole 0 μg/ml): 2.5 µg/mL
MIC of β-lactone compound ([3]; itraconazole 0 μg/ml): 2.5 µg/mL
MIC of β-lactone compound ([3]; ketoconazole 0 μg/ml): 2.5 µg/mL
MIC of β-lactone compound ([3]; with fluconazole 0.3125 μg/ml): 1.25 µg/mL
MIC of β-lactone compound ([3]; with fluconazole 1.25 μg/ml): 0.625 µg/mL
MIC of β-lactone compound ([3]; with fluconazole 5.0 μg/ml): 0.625 µg/mL
MIC of β-lactone compound ([3]; with itraconazole 0.3125 μg/ml): 2.5 µg/mL
MIC of β-lactone compound ([3]; with itraconazole 1.25 μg/ml): 1.25 µg/mL
MIC of β-lactone compound ([3]; with itraconazole 5.0 μg/ml): 1.25 µg/mL
MIC of β-lactone compound ([3]; with ketoconazole 0.3125 μg/ml): 0.625 µg/mL
MIC of β-lactone compound ([3]; with ketoconazole 1.25 μg/ml): 0.625 µg/mL
MIC of β-lactone compound ([3]; with ketoconazole 5.0 μg/ml): 0.625 µg/mL
MIC, β-Lactone Compound in Presence of Ketoconazole ([4]; ketoconazole 0 μg/ml): > 50 µg/mL
MIC, β-Lactone Compound in Presence of Ketoconazole ([4]; ketoconazole 0.031 μg/ml): > 50 µg/mL
MIC, β-Lactone Compound in Presence of Ketoconazole ([4]; ketoconazole 0.123 μg/ml): > 50 µg/mL
MIC, β-Lactone Compound in Presence of Ketoconazole ([4]; ketoconazole 0.5 μg/ml): > 50 µg/mL
MIC, β-Lactone Compound in Presence of Ketoconazole ([4]; ketoconazole 2 μg/ml): > 50 µg/mL
MFC [5]: 10 µg/mL (≈ 30.8 µM)
MIC, β-Lactone Compound in Presence of Ketoconazole ([6]; ketoconazole 0 μg/ml): 3.125 µg/mL
MIC, β-Lactone Compound in Presence of Ketoconazole ([6]; ketoconazole 0.031 μg/ml): 0.78 µg/mL
MIC, β-Lactone Compound in Presence of Ketoconazole ([6]; ketoconazole 0.123 μg/ml): 0.78 µg/mL
MIC, β-Lactone Compound in Presence of Ketoconazole ([6]; ketoconazole 0.5 μg/ml): 0.19 µg/mL
MIC, β-Lactone Compound in Presence of Ketoconazole ([6]; ketoconazole 2 μg/ml): 0.19 µg/mL
MIC, β-Lactone Compound in Presence of Ketoconazole ([7]; ketoconazole 0 μg/ml): 12.5 µg/mL
MIC, β-Lactone Compound in Presence of Ketoconazole ([7]; ketoconazole 0.031 μg/ml): 12.5 µg/mL
MIC, β-Lactone Compound in Presence of Ketoconazole ([7]; ketoconazole 0.123 μg/ml): 3.125 µg/mL
MIC, β-Lactone Compound in Presence of Ketoconazole ([7]; ketoconazole 0.5 μg/ml): 0.19 µg/mL
MIC, β-Lactone Compound in Presence of Ketoconazole ([7]; ketoconazole 2 μg/ml): 0.19 µg/mL
MIC, β-Lactone Compound in Presence of Ketoconazole ([8]; ketoconazole 0 μg/ml): 0.78 µg/mL
MIC, β-Lactone Compound in Presence of Ketoconazole ([8]; ketoconazole 0.031 μg/ml): 0.39 µg/mL
MIC, β-Lactone Compound in Presence of Ketoconazole ([8]; ketoconazole 0.123 μg/ml): 0.78 µg/mL
MIC, β-Lactone Compound in Presence of Ketoconazole ([8]; ketoconazole 2 μg/ml): N.G.
MIC, β-Lactone Compound in Presence of Ketoconazole ([9]; ketoconazole 0 μg/ml): 3.125 µg/mL
MIC, β-Lactone Compound in Presence of Ketoconazole ([9]; ketoconazole 0.031 μg/ml): 0.78 µg/mL
MIC, β-Lactone Compound in Presence of Ketoconazole ([9]; ketoconazole 0.123 μg/ml): 0.195 µg/mL
MIC, β-Lactone Compound in Presence of Ketoconazole ([9]; ketoconazole 0.5 μg/ml): 0.19 µg/mL
MIC, β-Lactone Compound in Presence of Ketoconazole ([9]; ketoconazole 2 μg/ml): 0.19 µg/mL
MIC, β-Lactone Compound in Presence of Ketoconazole ([10]; ketoconazole 0 μg/ml): > 50 µg/mL
MIC, β-Lactone Compound in Presence of Ketoconazole ([10]; ketoconazole 0.031 μg/ml): > 50 µg/mL
MIC, β-Lactone Compound in Presence of Ketoconazole ([10]; ketoconazole 0.123 μg/ml): > 50 µg/mL
MIC, β-Lactone Compound in Presence of Ketoconazole ([10]; ketoconazole 0.5 μg/ml): > 50 µg/mL
MIC, β-Lactone Compound in Presence of Ketoconazole ([10]; ketoconazole 2 μg/ml): > 50 µg/mL
MIC [11]: 2.5 µg/mL (≈ 7.71 µM)

Source: US4988697A, “Fungicidal compositions and method” (Merck & Co., Inc., priority 1989, dated 1991)
